Strand notation (5' to 3'): a small letter for the sugar, then the base; units joined by * are phosphorothioate-linked, units joined directly phosphodiester-linked; [ ] holds rarer units or linkages, { } end groups; capitals alone tell only the bases. e = 2'-O-(2-methoxyethyl) (MOE); l = locked nucleic acid (LNA); [5mC] = 5-methylcytosine; d = 2'-deoxy (DNA)
What was measured:
GCGR mRNA = GCGR mRNA levels in liver and estimated ED50, C57/BL6 mice, single i.p. dose of MOE and methyleneoxy BNA gapmers (Tables 44, 45); assay type: in vivo, mouse; conditions: liver
Procedure: Eight-week old male C57/BL6 mice (Jackson Laboratory, Bar Harbor, Me.) were administered a single dose of GCGR antisense compound by intraperitonel (i.p.) injection at a concentration of 10, 3.2, 1, and 0.32 μmol·kg. Each dose group consisted of four animals. Shown in Table 43 are the sequences, motifs and conjugates of the GCGR antisense compounds used in this study. Bolded residues indicate 2′-O-methoxyethyl (2′-MOE) modifications and the italicized residues indicate methyleneoxy (4′-CH2—O-2′) BNA modifications. All antisense compounds comprise phosphorothioate internucleoside linkages throughout and each cytosine is replaced with 5-methylcytosine. GCGR antisense compounds target published GCGR nucleic acids, including Genbank Accession No. BC031885.1 (SEQ ID NO: 7).
To determine whether the phenotypic changes shown above correlated with a decrease in GCGR mRNA, treated animals were evaluated for levels of target mRNA in liver by RT, real time PCR according to methods described herein. Table 44 show results from direct comparisons of the antisense compounds targeting GCGR nucleic acid for their effect on target expression. Results are expressed as percent of saline control.

mouse SGLT2 mRNA [1] = experiment: Mouse SGLT2 mRNA in kidney, 1-10-1 MOE gapmers, Balb/c mice (Table 65); assay type: in vivo
Procedure: The short antisense compounds were analyzed for their effect on mouse SGLT2 mRNA levels. Data was taken from three experiments in which Male 6-week old Balb/c mice were dosed twice per week for two weeks with 450, 150, or 50 nmol/kg of one of the above 1-10-1 MOE gapmers given by intraperitoneal injection. Mice were sacrificed 48 hours following last administration and evaluated for SGLT2 mRNA levels in kidney. Target levels were determined by RT, real-time PCR as described by other examples herein. PCR results were normalized to an internal ISIS control.

mouse SGLT2 mRNA [2] = experiment: Mouse SGLT2 mRNA in kidney, additional 1-10-1 and 2-8-2 MOE gapmers (Table 68); assay type: in vivo; conditions: Balb/c mouse kidney
Procedure: 1-10-1 and 2-8-2 MOE gapmer short antisense compounds were designed to target different regions of the mouse SGLT2 RNA but have complementarity across species. […] All cytidine residues are 5-methylcytidines.
The short antisense compounds were analyzed for their effect on mouse SGLT2 mRNA levels in vivo. Data was taken from three experiments in which male 6-week old Balb/c mice were dosed twice per week for three weeks with 0.5, 0.1, or 0.02 umol/kg of either a 1-10-1 or 2-8-2 MOE gapmer given by intraperitoneal injection. Mice were sacrificed 48 hours following last administration and evaluated for SGLT2 levels in kidney. Target levels were determined by RT, real-time PCR as described by other examples herein. PCR results were normalized to an internal ISIS control.

rat SGLT2 mRNA [3] = experiment: Rat SGLT2 mRNA in kidney, 1-10-1 gapmers, 250 nmol/kg (Table 66); assay type: in vivo; conditions: for % change in SGLT2 expression relative to saline: 250 nmol/kg i.p. twice per week for three weeks, Sprague-Dawley rat kidney
Procedure: The effect of the above 1-10-1 gapmers (see Table 64 above) on rat SGLT2 mRNA levels. Data are taken from four experiments in which male Sprague-Dawley rats (170-200 g) were dosed twice per week for three weeks with 250 nmol/kg given by intraperitoneal injection. Rats were sacrificed 48 hours following last administration and evaluated for SGLT2 mRNA levels in kidney. Target levels were determined by RT, real-time PCR as described by other examples herein. PCR results were normalized to an internal ISIS control.

mouse SGLT2 mRNA [4] = experiment: Mouse SGLT2 mRNA in kidney, MOE versus Methyleneoxy BNA gapmers (Table 69); assay type: in vivo; conditions: Balb/c mouse kidney
Procedure: The effect of ISIS 3796921-10-1 MOE gapmer and ISIS 3886252-8-2 MOE gapmer are compared with the effect of ISIS 3921701-10-1 Methyleneoxy BNA Gapmer and ISIS 3921732-8-2 Methyleneoxy BNA Gapmer (see Table 69) on mouse SGLT2 mRNA levels in vivo. Data are taken from three experiments in which male 6-week old Balb/c mice were dosed twice per week for three weeks with 5, 25 and 125 nmol/kg of either the ISIS 3796921-10-1 MOE gapmer or the ISIS 3886252-8-2 MOE gapmer given by intraperitoneal injection. Mice were sacrificed 48 hours following last administration and evaluated for SGLT2 mRNA levels in kidney. Target levels were determined by RT, real-time PCR as described by other examples herein. PCR results were normalized to an internal ISIS control. The data are expressed as percent change (“+” indicates an increase, “−” indicates a decrease) relative to saline treated animals and are illustrated in Table 69.

monkey GCGR mRNA = experiment: Antisense inhibition of GCGR in primary monkey hepatocytes (Table 80); assay type: cell-based; conditions: relative to untreated control cells
Procedure: Additional short antisense compounds targeted to a GCGR nucleic acid were tested for their effects on monkey GCGR mRNA in vitro. Cultured primary monkey hepatocytes were treated as described herein with 25, 50, 100 or 200 nM of short antisense compound. After the treatment period, RNA was isolated from the cells and GCGR mRNA levels were measured by quantitative real-time PCR, as described herein. GCGR mRNA levels were adjusted according to total RNA content as measured by RIBOGREEN®. Results are presented in Table 80 as percent reduction in GCGR mRNA, relative to untreated control cells.

[5] = HbA1c status in ZDF rat (Table 72); assay type: in vivo; conditions: ZDF rat, 400 nM/kg i.p. once a week
Procedure: ISIS 388625, 388626 and control oligo ISIS 388628 were analyzed for their effect on ZDF rat plasma glucose levels and HbA1c. The leptin receptor deficient Zucker diabetic fatty (ZDF) rat is a useful model for the investigation of type 2 diabetes. Diabetes develops spontaneously in these male rats at ages 8-10 weeks, and is associated with hyperphagia, polyuria, polydipsia, and impaired weight gain, symptoms which parallel the clinical symptoms of diabetes (Phillips M S, et al., 1996, Nat Genet. 13, 18-19). Six week old ZDF rats were injected intraperitoneally with short antisense compound at a dose of 400 nM/kg once a week for twelve weeks. Data are illustrated in Tables 71 and 72.

PTEN mRNA = PTEN mRNA levels in liver, kidney and fat, Balb/c mice, single i.p. 8 μmol/kg (Table 48); assay type: in vivo, mouse; conditions: 72 h, saline = 100
From the text: Each dose group consisted of four animals. Shown in Table 46 are the sequences and motifs of the PTEN antisense compounds used in this study. Bolded residues indicate 2′-O-methoxyethyl moieties (2′-MOE) and italicized residues indicate Methyleneoxy BNA nucleotides. Each antisense compound comprises phosphorothioate linkages throughout. In addition, the cytosine residues in the gap of ISIS 384073 and in the wings of ISIS 392056, ISIS 392057, ISIS 392061 and ISIS 392063 are replaced with 5-methylcytosines. Antisense compounds target published PTEN nucleic acids, including Genbank Accession No. U92437.1 (SEQ ID
Mice were sacrificed 72 hours following injection to determine serum transaminase levels (Table 47); liver and spleen weights (Table 47); and PTEN mRNA levels in liver, kidney and fat (Table 48), according to procedures described herein and well know to one of ordinary skill in the art.

rat SGLT2 mRNA [6] = experiment: Rat SGLT2 mRNA in kidney, 1-10-1 and 1-10-2 MOE gapmers, Sprague-Dawley rats (Table 63); assay type: in vivo
From the text: 1-10-1 and 1-10-2 MOE gapmer antisense compounds, provided in Table 62, were designed to target different regions of the mouse or rat SGLT2 RNA. All short antisense compounds in Table 62 are chimeric oligonucleotides (“gapmers”) either 12 or 13 nucleotides in length, composed of a central “gap” segment consisting of ten 2′-deoxynucleotides, which are flanked on the 5′ side by a one-nucleoside “wing” and on the 3′ side by a two or one-nucleotide “wing”. […] All cytidine residues are 5-methylcytidines.
The short antisense compounds were analyzed for their effect on rat SGLT2 mRNA levels. Data are ranges taken from three experiments in which Male Sprague-Dawley rats (170-200 g) were dosed twice per week for three weeks with 450, 150 or 50 nmol/kg of either a 1-10-1 or 1-10-2 MOE gapmer given by intraperitoneal injection. Rats were sacrificed 48 hours following last administration and evaluated for SGLT2 mRNA levels in kidney. Target levels were determined by RT, real-time PCR as described by other examples herein. PCR results were normalized to an internal ISIS control.

[7] = 50 nmol/kg i.p. twice per week for two weeks
[8] = 150 nmol/kg i.p. twice per week for two weeks
[9] = 450 nmol/kg i.p. twice per week for two weeks
[10] = 0.02 umol/kg i.p. twice per week for three weeks
[11] = 0.1 umol/kg i.p. twice per week for three weeks
[12] = 0.5 umol/kg i.p. twice per week for three weeks
[13] = 5 nmol/kg i.p. twice per week for three weeks
[14] = 25 nmol/kg i.p. twice per week for three weeks
[15] = 125 nmol/kg i.p. twice per week for three weeks

## 396145 (ATGGCTTCTCCATCATATCC; 5-10-5 MOE gapmer, chemistry not fully specified) [compound 396145]
GCGR mRNA; 3.2 μmol/kg single i.p.
  GCGR mRNA levels: 33% of saline control
GCGR mRNA; 10 μmol/kg single i.p.
  GCGR mRNA levels: 8% of saline control

## ISIS 379702 (eG*d[5mC]*dA*d[5mC]*dA*d[5mC]*dA*dG*d[5mC]*dT*dG*e[5mC])
Mouse SGLT2 mRNA [1]; [7]
  % change in SGLT2 expression relative to saline: −52.5%
Mouse SGLT2 mRNA [1]; [8]
  % change in SGLT2 expression relative to saline: −72.5%
Mouse SGLT2 mRNA [1]; [9]
  % change in SGLT2 expression relative to saline: −75%
Mouse SGLT2 mRNA [2]; [10]
  % change in SGLT2 expression relative to saline: −40%
Mouse SGLT2 mRNA [2]; [11]
  % change in SGLT2 expression relative to saline: −65%
Mouse SGLT2 mRNA [2]; [12]
  % change in SGLT2 expression relative to saline: −70%
Rat SGLT2 mRNA [3]
  % change in SGLT2 expression relative to saline: −25%

## ISIS 392170: 1-10-1 Methyleneoxy BNA Gapmer, SGLT2 (lT*dG*dT*dT*d[5mC]*d[5mC]*dA*dG*d[5mC]*d[5mC]*d[5mC]*lA)
Mouse SGLT2 mRNA [4]; [13]
  SGLT2 mRNA, percent change relative to saline treated animals: −23%
Mouse SGLT2 mRNA [4]; [14]
  SGLT2 mRNA, percent change relative to saline treated animals: −54%
Mouse SGLT2 mRNA [4]; [15]
  SGLT2 mRNA, percent change relative to saline treated animals: −69%

## 327131 (antisense eA*eT*eG*dT*dT*dG*dG*d[5mC]*d[5mC]*dG*dT*eG*eG*eT) [compound 327131]
Monkey GCGR mRNA; 25 nM
  percent reduction in GCGR mRNA: 0%
Monkey GCGR mRNA; 50 nM
  percent reduction in GCGR mRNA: −8%
Monkey GCGR mRNA; 100 nM
  percent reduction in GCGR mRNA: −36%
Monkey GCGR mRNA; 200 nM
  percent reduction in GCGR mRNA: −36%

## 388628 (eT*eA*dG*d[5mC]*d[5mC]*dG*d[5mC]*d[5mC]*d[5mC]*dA*e[5mC]*eA) [compound 388628]
[5]; Day 40
  Percentage HbA1c: 8.0%
[5]; Day 55
  Percentage HbA1c: 9.1%
[5]; Day 68
  Percentage HbA1c: 7.8%

## 396147 (CTTGGGCATGCTCGTCAGTC; 5-10-5 MOE gapmer, chemistry not fully specified) [compound 396147]
GCGR mRNA; 3.2 μmol/kg single i.p.
  GCGR mRNA levels: 68% of saline control
GCGR mRNA; 10 μmol/kg single i.p.
  GCGR mRNA levels: 28% of saline control

## 388625 (eT*eG*dT*dT*d[5mC]*d[5mC]*dA*dG*d[5mC]*d[5mC]*e[5mC]*eA) [compound 388625]
[5]; Day 40
  Percentage HbA1c: 6.5%
[5]; Day 55
  Percentage HbA1c: 5.8%
[5]; Day 68
  Percentage HbA1c: 4.3%

## ISIS 381408: 1-10-1 MOE gapmer targeting SGLT2 mRNA (TACCGAACACCT; sugars from the 5' end e1 d10 e1, backbone and methylation of C not given here)
Rat SGLT2 mRNA [3]
  % change in SGLT2 expression relative to saline: −5%
Rat SGLT2 mRNA [3]; 250 nmol/kg twice per week for three weeks
  expression of SGLT2 in in vivo rat studies: Activity of ISIS 381408 has been shown

## 384073 (antisense lG*lC*lT*dA*dG*d[5mC]*d[5mC]*dT*d[5mC]*dT*dG*dG*dA*lT*lT*lT) [compound 384073]
PTEN mRNA
  % PTEN mRNA levels in Fat: 77%
  % PTEN mRNA levels in Kidney: 74%
  % PTEN mRNA levels in Liver: 24%

## ISIS 392173: 2-8-2 Methyleneoxy BNA Gapmer, SGLT2 (lT*lG*dT*dT*d[5mC]*d[5mC]*dA*dG*d[5mC]*d[5mC]*l[5mC]*lA)
Mouse SGLT2 mRNA [4]; [13]
  SGLT2 mRNA, percent change relative to saline treated animals: −44%
Mouse SGLT2 mRNA [4]; [14]
  SGLT2 mRNA, percent change relative to saline treated animals: −57%
Mouse SGLT2 mRNA [4]; [15]
  SGLT2 mRNA, percent change relative to saline treated animals: −75%

## ISIS 379699: GGCATGAGCTTC 1-10-1 MOE, SGLT2 (eG*dG*d[5mC]*dA*dT*dG*dA*dG*d[5mC]*dT*dT*e[5mC])
Mouse SGLT2 mRNA [1]; [7]
  % change in SGLT2 expression relative to saline: −42.5%
Mouse SGLT2 mRNA [1]; [8]
  % change in SGLT2 expression relative to saline: −62.5%
Mouse SGLT2 mRNA [1]; [9]
  % change in SGLT2 expression relative to saline: −80%
Mouse SGLT2 mRNA [2]; [10]
  % change in SGLT2 expression relative to saline: −30%
Mouse SGLT2 mRNA [2]; [11]
  % change in SGLT2 expression relative to saline: −60%
Mouse SGLT2 mRNA [2]; [12]
  % change in SGLT2 expression relative to saline: −75%
Rat SGLT2 mRNA [3]
  % change in SGLT2 expression relative to saline: −75%
Rat SGLT2 mRNA [6]; 50 nmol/kg i.p. twice per week for three weeks
  % change in SGLT2 expression relative to saline: −60%
Rat SGLT2 mRNA [6]; 150 nmol/kg i.p. twice per week for three weeks
  % change in SGLT2 expression relative to saline: −75%
Rat SGLT2 mRNA [6]; 450 nmol/kg i.p. twice per week for three weeks
  % change in SGLT2 expression relative to saline: −83%
